# According to patent US6403794B2, “Substituted 2-amino-4-alkylamino-1,3,5-triazines as herbicides” (Bayer Aktiengesellschaft, priority 1996, dated 2002):
# Read-outs that look alike come from different tables or passages of the source.
# How the values were obtained:
# Assay type in all cases: in vivo
# [1] = system: Abutilon; assay: Post-emergence test; conditions: greenhouse, 1000 g of ai./ha, after three weeks
# Protocol: (§1) Solvent: 5 parts by weight of acetone
# (§2) Emulsifier: 1 part by weight of alkylaryl polyglycol ether
# (§3) To produce a suitable preparation of active compound, 1 part by weight of active compound is mixed with the stated amount of solvent, the stated amount of emulsifier is added and the concentrate is diluted with water to the desired concentration.
# (§4) Test plants which have a height of 5-15 cm are sprayed with the preparation of active compound such that the particular amounts of active compounds desired are applied per unit area. The concentration of the spray liquor is chosen so that the particular amounts of active compound desired are applied in 1000 l of water/ha.
# (§5) After three weeks, the degree of damage to the plants is scored visually in % damage, in comparison to the untreated control.
# (§6) 0%=no effect (like untreated control)
# [2] = system: Amaranthus; assay: Post-emergence test; conditions: for pest or weed control at 1000 g/ha / pest or weed control at 500 g/ha: Amaranthus, 504 h, read-out: degree of damage to the plants (% damage), Amaranthus; for pest or weed control at 500 g/ha: 500 g of ai./ha
# Protocol: as §1, §2, §3, §4, §5, §6
# [3] = system: Alopecurus; assay: Post-emergence test; conditions: greenhouse, 1000 g of ai./ha, after three weeks
# Protocol: as §1, §2, §3, §4, §5, §6
# [4] = system: Sinapis; assay: Post-emergence test; conditions: greenhouse, 1000 g of ai./ha, after three weeks
# Protocol: as §1, §2, §3, §4, §5, §6
# [5] = system: weeds; assay: Post-emergence test
# Protocol: as §1, §2, §3, §4, §5, §6
# [6] = system: Avena fatua; assay: Post-emergence test; conditions: greenhouse, 1000 g of ai./ha, after three weeks
# Protocol: as §1, §2, §3, §4, §5, §6
# [7] = system: Cyperus; assay: Post-emergence test; conditions: greenhouse, 1000 g of ai./ha, after three weeks
# Protocol: as §1, §2, §3, §4, §5, §6
# [8] = system: Xanthium; assay: Post-emergence test; conditions: greenhouse, 1000 g of ai./ha, after three weeks
# Protocol: as §1, §2, §3, §4, §5, §6
# [9] = system: Setaria; assay: Post-emergence test; conditions: for pest or weed control at 1000 g/ha / pest or weed control at 500 g/ha: Setaria, 504 h, read-out: degree of damage to the plants (% damage), Setaria; for pest or weed control at 500 g/ha: 500 g of ai./ha
# Protocol: as §1, §2, §3, §4, §5, §6
# [10] = system: Ipomoea; assay: Post-emergence test; conditions: greenhouse, 500 g of ai./ha, after three weeks
# Protocol: as §1, §2, §3, §4, §5, §6
# [11] = system: Echinochloa; assay: Post-emergence test; conditions: greenhouse, 500 g of ai./ha, after three weeks
# Protocol: as §1, §2, §3, §4, §5, §6
# [12] = system: Solanum; assay: Post-emergence test; conditions: greenhouse, 500 g of ai./ha, after three weeks
# Protocol: as §1, §2, §3, §4, §5, §6
# [13] = system: Polygonum; assay: Post-emergence test; conditions: greenhouse, 500 g of ai./ha, after three weeks
# Protocol: as §1, §2, §3, §4, §5, §6
# [14] = system: Galium; assay: Pre-emergence test; conditions: greenhouse, 1000 g of ai./ha, after three weeks
# Protocol: as §1, §2, §3
# (§7) Seeds of the test plants are sown in normal soil. After about 24 hours, the soil is watered with the preparation of active compound. The amount of water per unit area is advantageously kept constant. The concentration of active compound in the preparation is immaterial, only the application rate of active compound per unit area matters.
# (§8) After three weeks, the degree of damage to the plants is scored visually in % damage in comparison to the development of the untreated control.
# as §6
# [15] = system: Abutilon; assay: Pre-emergence test; conditions: for pest or weed control at 1000 g/ha: Abutilon, 504 h, read-out: degree of damage to the plants (% damage), Abutilon
# Protocol: as §1, §2, §3, §7, §8, §6
# [16] = system: Amaranthus; assay: Pre-emergence test; conditions: for pest or weed control at 1000 g/ha: Amaranthus, 504 h, read-out: degree of damage to the plants (% damage), Amaranthus
# Protocol: as §1, §2, §3, §7, §8, §6
# [17] = system: Alopecurus; assay: Pre-emergence test; conditions: greenhouse, 1000 g of ai./ha, after three weeks
# Protocol: as §1, §2, §3, §7, §8, §6
# [18] = system: weeds; assay: Pre-emergence test
# Protocol: as §1, §2, §3, §7, §8, §6
# [19] = system: Galium; assay: Post-emergence test; conditions: greenhouse, 1000 g of ai./ha, after three weeks
# Protocol: as §1, §2, §3, §4, §5, §6
# [20] = system: Setaria; assay: Pre-emergence test; conditions: greenhouse, 1000 g of ai./ha, after three weeks
# Protocol: as §1, §2, §3, §7, §8, §6
# [21] = system: Wheat; assay: Post-emergence test; conditions: greenhouse, 500 g of ai./ha, after three weeks
# Protocol: as §1, §2, §3, §4, §5, §6
# [22] = greenhouse, 1000 g of ai./ha, after three weeks
Structure (SMILES),"degree of damage to the plants (% damage), Abutilon [1] [%]","degree of damage to the plants (% damage), Alopecurus [3] [%]",activity against weeds [5],"degree of damage to the plants (% damage), Xanthium [8] [%]","degree of damage to the plants (% damage), Galium [14] [%]","degree of damage to the plants (% damage), Alopecurus [17] [%]",activity against weeds [18],"degree of damage to the plants (% damage), Galium [19] [%]",also measured
CCC(CCc1cccs1)Nc1nc(N)nc(C(C)F)n1 (stereo not drawn) [Example 23],100,90,strong activity,100,,,,,"pest or weed control at 1000 g/ha [2, 22]: 100%; degree of damage to the plants (% damage), Sinapis [4]: 100%; degree of damage to the plants (% damage), Avena fatua [6]: 100%; degree of damage to the plants (% damage), Cyperus [7]: 100%; pest or weed control at 1000 g/ha [9, 22]: 100%"
CCC(CCc1cccs1)Nc1nc(N)nc(C(C)(C)F)n1 (stereo not drawn) [Example 24],,,strong activity,,,,,,"degree of damage to the plants (% damage), Ipomoea [10]: 100%; degree of damage to the plants (% damage), Echinochloa [11]: 100%; pest or weed control at 500 g/ha ([2]; greenhouse, after three weeks): 100%; degree of damage to the plants (% damage), Solanum [12]: 95%; degree of damage to the plants (% damage), Polygonum [13]: 95%; pest or weed control at 500 g/ha ([9]; greenhouse, after three weeks): 80%"
CC(C)C(CCc1ccc(Cl)cc1)Nc1nc(N)nc(C(C)(C)F)n1 (stereo not drawn) [Example 29],,,,,80,70,strong activity,,pest or weed control at 1000 g/ha [15]: 80%; pest or weed control at 1000 g/ha [16]: 80%
CCC(CCc1ccccc1)Nc1nc(N)nc(C(F)(F)F)n1 (stereo not drawn) [Example 41],100,80,strong activity,100,95,90,strong activity,100,"pest or weed control at 1000 g/ha [2, 22]: 100%; pest or weed control at 1000 g/ha [9, 22]: 100%; pest or weed control at 1000 g/ha [15, 22]: 100%; pest or weed control at 1000 g/ha [16, 22]: 100%; degree of damage to the plants (% damage), Setaria [20]: 100%"
CCC(CCc1ccccc1)Nc1nc(N)nc(C(F)(F)F)n1 (stereo not drawn) [Example 43],100,,strong activity,100,,,,70,"degree of damage to the plants (% damage), Ipomoea [10]: 100%; degree of damage to the plants (% damage), Wheat [21]: 10%; pest or weed control at 500 g/ha ([2]; greenhouse, after three weeks): 100%; degree of damage to the plants (% damage), Amaranthus [2, 22]: 100%; degree of damage to the plants (% damage), Solanum [12]: 100%; degree of damage to the plants (% damage), Polygonum [13]: 100%; pest or weed control at 500 g/ha ([9]; greenhouse, after three weeks): 90%; degree of damage to the plants (% damage), Setaria [9, 22]: 100%"
CCC(COc1ccc(Cl)cc1)Nc1nc(N)nc(C(F)(F)F)n1 (stereo not drawn) [Example 44],100,80,strong activity,100,,,,80,pest or weed control at 1000 g/ha [2]: 100%; pest or weed control at 1000 g/ha [9]: 100%
CCC(CCc1ccccc1)Nc1nc(N)nc(C(F)(F)F)n1 (stereo not drawn) [Example 45],100,80,strong activity,80,100,80,strong activity,100,"degree of damage to the plants (% damage), Amaranthus [2, 22]: 100%; degree of damage to the plants (% damage), Setaria [9, 22]: 100%; degree of damage to the plants (% damage), Abutilon [15, 22]: 100%; degree of damage to the plants (% damage), Amaranthus [16, 22]: 100%; degree of damage to the plants (% damage), Setaria [20]: 95%"
